Patent EP3578180A1, “MODULATORS OF SERYL-TRNA SYNTHASE AND PHARMACEUTICAL COMPOSITIONS COMPRISING THE SAME FOR INCREASING CELL HYPOXIC TOLERANCE” (Centre National de la Recherche Scientifique (CNRS), priority 2018, dated 2019)
Where two headings read alike, the source gives them in different places.

Key:
PCT cells = assay: LIVE/DEAD cell viability of kidney cells under anoxia; format: cell-based, murine
Procedure: HT22 mouse hippocampal neuronal cells were cultured in Dulbecco's modified Eagle's medium (DMEM; Gibco) supplemented with 10% FBS (Gibco), 100U/ml streptomycin, 100U/ml penicillin at 37 °C in 5% CO2/95% air. Renal PCT cells were obtained from primary cultures of murine proximal tubule segments and cultured as previously described (Melis, N. et al. Targeting eIF5A Hypusination Prevents Anoxic Cell Death through Mitochondrial Silencing and Improves Kidney Transplant Outcome. J Am Soc Nephrol 28, 811-822, doi:10.1681/ASN.2016010012 (2017)). Hypoxic or anoxic conditions were created by maintaining cell cultures at 37°C in a sealed "Bug-Box" anaerobic workstation (Ruskin Technologies). Oxygen Glucose Deprivation (OGD) was induced on HT22 cells placing them in glucose-free Hepes balanced salt solution without glucose (HBSS: NaCl 116mM, KCl 5.4mM, CaCl2 1.8mM, MgSO4 0.8mM, NAH2PO4 1mM, NaHCO3 26.2mM,; pH 7.2-7.4) in an hypoxic chamber filled with 98.5% N2 and 1.5% CO2 at 37°C for 3h. Upon removal of the cultures from the chamber, the growth medium was changed back to normal medium.
The Fluorescent LIVE/DEAD® Cell Viability/Cytotoxicity Assay Kit (Invitrogen, France) was used on PCT cells (24-well plates) according to the manufacturer's protocol. Fluorescent micrographs were recorded using an observer D1 microscope (Zeiss).
150,000 PCT cells were seeded in Petri dishes and transfected 24 h later with 50 nM serRS pooled siRNAs (Sigma MISSION®esiRNA targeting mouse serRS: EMU081851) using Lipofectamine™ 3000 transfection reagent (Invitrogen). Cells were exposed to various experimental procedures 24-48 h post-transfection, as described in the text.

mice = assay: tMCAo stroke model, infarct volume (cresyl violet); format: in vivo; conditions: SerHX pretreatment, '15 mM serHX group'; 60 min tMCAo; 24 h post-reperfusion; Fig.3C
Procedure: Male 7-week old C57BL/6J mice (Janvier France Breeding) were housed in a temperature- and humidity-controlled animal facility with a 12-h light-dark cycle. Food and water were available ad libitum. All animal care and use were performed with in accordance to the policies of European Community Directive 86/609/EEC. All efforts were made to minimize animal suffering and the number of animals used.
tMCAO was performed 30 min after the final injection using a 6-0 coated filament (Doccol), as previously described (Bourourou, M., Heurteaux, C. & Blondeau, N. Alpha-linolenic acid given as enteral or parenteral nutritional intervention against sensorimotor and cognitive deficits in a mouse model of ischemic stroke. Neuropharmacology 108, 60-72, doi:10.1016/j.neuropharm.2016.04.040 (2016)). Control of tMCAo severity and reperfusion was evaluated monitoring the regional cerebral blood flow by laser-Doppler flowmetry. Infarct volume (mm^3) was mesured 24 h post-reperfusion on coronal frozen brain sections ([…]) stained by 1% cresyl violet in 0.25% acetic acid using a computer image analysis system.
Animals were randomly assigned to vehicle or serHX groups prepared for 3 experimental protocols. Protocol 1: Vehicle and serHX were administrated intraperitoneally (416 mM, 150µl IP) 48, 24, 2h before a 60min tMCAo. […]

Structure (SMILES): C[C@@H]1C[C@@H]([C@H](O)CC2CC(=O)NC(=O)C2)C(=O)[C@@H](C)C1 [cycloheximide]
- living kidney cells (PCT cells): 64%
- renal cell survival after 24 h of anoxia (in words) (PCT cells): increased renal cell survival

Structure (SMILES): NC(CO)C(=O)NO (centres unmarked) [serine hydroxamate]
- living kidney cells (PCT cells; anoxia 24 h, <0.1% O2, cells treated with the inhibitor beforehand, CHX 1 to 10 pg/ml, Fig.1A): 95%
- reduction of infarct volumes compared with the vehicle group (mice): 30%

Structure (SMILES): N[C@@H](CO)C(=O)O [serine]
- renal cell survival after 24 h of anoxia (in words) (PCT cells; anoxia 24 h, <0.1% O2, Fig.1A): no effect
